Entries after “also recorded” stand apart in the source; their conditions may differ.
What was measured:
Type in all cases: physicochemical
[1] = Competitive slurry 1 in nitromethane, solids characterized by XRPD; conditions: equal quantity (5 mg) of Form I, II, III, IV and VIII in nitromethane, room temperature, 7 days
Excerpt: (§1) The slurry method described in the present invention refers to stirring of a supersaturated solution of the sample (with undissolved solids) in various solvent systems for crystallization. Usually, the duration is 14 days.

[2] = Hygroscopicity by dynamic vapor sorption (DVS) isothermal sorption; conditions: for Weight change within 20%-80% RH range: DVS isothermal sorption, relative humidity 20%-80%; for Hygroscopicity in words (compared to Form I): from DVS weight change within 20-80% RH
Method: Dynamic vapor sorption (DVS) data were collected using TA Instruments Q500 TGA. The instrument control software was Thermal Advantage, and the analytical software was Universal Analysis. Usually, 1-10 mg of the sample was placed in a platinum pan, and the weight change of the sample during studies was recorded. The relative humidity was usually programed to change from 50% to 80% to 0% and then back to 50%, and an isothermal sorption plot could be generated. Depending on specific situations, different sorption and desorption procedures might be used. Hygroscopicity comparison: DVS isothermal sorption curves were used, and weight changes within the 20%-80% RH range were measured.

[3] = Competitive slurry 2 in mixed solvent of isopropanol and water, solids characterized by XRPD; conditions: equal quantity (5 mg) of Form VI and Form IX in 1 mL isopropanol and water (1:4, v/v), room temperature, 7 days
Excerpt: as §1

[4] = Competitive slurry of Form IX and Form I in mixed solvents of ethanol and water, solids characterized by XRPD; conditions: equal quantity (4 mg) of Form IX and Form I in 1 mL ethanol and water (1:1, 1:4, 1:5 and 1:10), room temperature, 7 days

Competitive slurry 1: crystal form after slurry [1]	Weight change within 20%-80% RH range [2] [%]	Hygroscopicity in words (compared to Form I) ([2]; listed as Form. IX)	Structure (SMILES)	Hygroscopicity in words (compared to Form I) [2]	Competitive slurry 2: crystal form after slurry [3]	Competitive slurry: crystal form after slurry [4]
transformed into Form III	0.27		CC[C@H](Nc1ncnc2[nH]cnc12)c1nc2cccc(F)c2c(=O)n1-c1ccccc1 [Form IV, 5-fluoro-3-phenyl-2-[(S)-1-(9H-purin-6-ylamino)-propyl]-3H-quinazoline-4-one]	less hygroscopic; also recorded: least hygroscopicity; also recorded: low hygroscopicity		
	0.3	low hygroscopicity	CC[C@H](Nc1ncnc2[nH]cnc12)c1nc2cccc(F)c2c(=O)n1-c1ccccc1 [Form IX, 5-fluoro-3-phenyl-2-[(S)-1-(9H-purin-6-ylamino)-propyl]-3H-quinazoline-4-one]	less hygroscopic; also recorded: lower hygroscopicity; also recorded: least hygroscopicity	transformed into Form VI; also recorded: Form VI, while Form VI	more stable; also recorded: remained unchanged; also recorded: unchanged, while Form I
transformed into Form III	0.95		CC[C@H](Nc1ncnc2[nH]cnc12)c1nc2cccc(F)c2c(=O)n1-c1ccccc1 [Form I, 5-fluoro-3-phenyl-2-[(S)-1-(9H-purin-6-ylamino)-propyl]-3H-quinazoline-4-one, reference compound]			transformed into Form IX
transformed into Form III	0.84		CC[C@H](Nc1ncnc2[nH]cnc12)c1nc2cccc(F)c2c(=O)n1-c1ccccc1 [Form VIII, 5-fluoro-3-phenyl-2-[(S)-1-(9H-purin-6-ylamino)-propyl]-3H-quinazoline-4-one]	less hygroscopic; also recorded: low hygroscopicity		
transformed into Form III	0.46		CC[C@H](Nc1ncnc2[nH]cnc12)c1nc2cccc(F)c2c(=O)n1-c1ccccc1 [Form II, 5-fluoro-3-phenyl-2-[(S)-1-(9H-purin-6-ylamino)-propyl]-3H-quinazoline-4-one]	less hygroscopic		
	0.57		CC[C@H](Nc1ncnc2[nH]cnc12)c1nc2cccc(F)c2c(=O)n1-c1ccccc1 [Form VI, 5-fluoro-3-phenyl-2-[(S)-1-(9H-purin-6-ylamino)-propyl]-3H-quinazoline-4-one]	lower hygroscopicity; also recorded: less hygroscopic	remained unchanged	

Structure (SMILES)	Competitive slurry 1: crystal form after slurry [1]	Weight change within 20%-80% RH range [2] [%]	Hygroscopicity in words (compared to Form I) ([2]; listed as Form. IX)	Hygroscopicity in words (compared to Form I) [2]	Competitive slurry 2: crystal form after slurry [3]	Competitive slurry: crystal form after slurry [4]
CC[C@H](Nc1ncnc2[nH]cnc12)c1nc2cccc(F)c2c(=O)n1-c1ccccc1 [Form III, 5-fluoro-3-phenyl-2-[(S)-1-(9H-purin-6-ylamino)-propyl]-3H-quinazoline-4-one]	thermodynamically the most stable form; also recorded: III remained unchanged	0.44		less hygroscopic		
